ChEMBL document CHEMBL5241078, “Emerging trends of receptor-mediated tumor targeting peptides: A review with perspective from molecular imaging modalities” (Eur J Med Chem, 2021)

Molecular target: T1, Gastrin/cholecystokinin type B receptor (Homo sapiens, UniProt P32239)
T1 sequence (P32239 whole entry): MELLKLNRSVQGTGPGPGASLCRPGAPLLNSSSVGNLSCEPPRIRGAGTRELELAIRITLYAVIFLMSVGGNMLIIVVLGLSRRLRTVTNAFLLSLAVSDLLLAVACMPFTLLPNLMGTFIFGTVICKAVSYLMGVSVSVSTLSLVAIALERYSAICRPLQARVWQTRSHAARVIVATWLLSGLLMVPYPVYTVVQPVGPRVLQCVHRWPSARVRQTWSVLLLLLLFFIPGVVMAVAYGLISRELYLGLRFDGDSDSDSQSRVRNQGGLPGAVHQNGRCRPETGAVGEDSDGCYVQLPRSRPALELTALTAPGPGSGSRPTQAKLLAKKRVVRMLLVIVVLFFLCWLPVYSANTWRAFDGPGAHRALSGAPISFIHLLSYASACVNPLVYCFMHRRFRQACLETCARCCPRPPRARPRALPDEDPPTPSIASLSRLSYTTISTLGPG
Experiment: Binding affinity to human CCK2R expressed in human A-431 cells
Type: cell-based

| Compound | IC50 [nM] |
| --- | --- |
| CSCCC[C@H](NC(=O)[C@H](Cc1c[nH]c2ccccc12)NC(=O)[C@H]1CCCCNC(=O)[C@H](NC(=O)c2ccc(NN)nc2)CCC(=O)N[C@@H](C)C(=O)N[C@@H](Cc2ccc(O)cc2)C(=O)N1)C(=O)N[C@@H](CC(=O)O)C(=O)N[C@@H](Cc1ccccc1)C(N)=O | 2.54 |
| CCCCC[C@H](NC(=O)[C@H](Cc1c[nH]c2ccccc12)NC(=O)[C@H]1CCCCNC(=O)[C@H](NC(=O)c2ccc(NN)nc2)CCC(=O)N[C@@H](C)C(=O)N[C@@H](Cc2ccc(O)cc2)C(=O)N1)C(=O)N[C@@H](CC(=O)O)C(=O)N[C@@H](Cc1ccccc1)C(N)=O | 3.23 |
